Data from patent US10023557B2 (LifeSci Pharmaceuticals, Inc., priority 2015, dated 2018).

Experiments:
human plasma kallikrein = human plasma kallikrein (Homo sapiens (Human), UniProt P03952); assay: In vitro enzyme inhibition of human plasma kallikrein (PFR-AMC cleavage); format: biochemical; details: Pro-Phe-Arg-AMC substrate, 37° C., read-out: hPK IC50
Summary of the method: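 Human plasma kallikrein and compound, diluted in 50 mM Tris-HCl pH 7.5, 150 mM NaCl, 0.01% Triton X-100, preincubated 5 min at 37 °C before PFR-AMC was added.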

[1] = target: cellular kallikrein activity (Homo sapiens (Human), UniProt P03952); assay: In vitro cellular assay (contact assay): kallikrein activity in ellagic acid-activated human plasma, Z-FR-2-AMC substrate; format: biochemical; details: human plasma activated with ellagic acid, 37° C.
cellular kallikrein activity, sequence (P03952 391-638): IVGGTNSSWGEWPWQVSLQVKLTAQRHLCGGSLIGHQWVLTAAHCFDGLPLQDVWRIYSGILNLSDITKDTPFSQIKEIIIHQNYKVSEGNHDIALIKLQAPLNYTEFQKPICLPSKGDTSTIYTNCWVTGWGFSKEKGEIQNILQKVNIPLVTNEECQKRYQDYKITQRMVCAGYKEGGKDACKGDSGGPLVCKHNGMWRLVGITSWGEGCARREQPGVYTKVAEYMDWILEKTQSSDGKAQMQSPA
cellular kallikrein activity, sequence (P03952 20-390 partner): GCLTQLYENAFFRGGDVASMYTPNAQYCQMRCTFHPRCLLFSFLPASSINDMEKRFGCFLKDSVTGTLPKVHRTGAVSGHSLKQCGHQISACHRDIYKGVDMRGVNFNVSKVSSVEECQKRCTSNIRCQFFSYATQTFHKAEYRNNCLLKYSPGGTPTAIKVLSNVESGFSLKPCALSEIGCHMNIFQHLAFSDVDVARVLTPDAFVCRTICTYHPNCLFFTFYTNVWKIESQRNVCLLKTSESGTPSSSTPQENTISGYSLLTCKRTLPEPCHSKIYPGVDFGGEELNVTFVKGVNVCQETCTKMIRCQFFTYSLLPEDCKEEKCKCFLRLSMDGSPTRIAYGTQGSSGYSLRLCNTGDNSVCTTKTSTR

human plasma kallikrein, sequence (P03952 391-638): as the sequence (P03952 391-638) above
human plasma kallikrein, sequence (P03952 20-390 partner): as the sequence (P03952 20-390 partner) above

| IC50 (human plasma kallikrein) [nM] | EC50 [1] [nM] | Compound |
| --- | --- | --- |
| < 100 | < 100 | Cc1cc(N)nc(C)c1CNC(=O)c1ccnc(Cc2cc(CN)c3ncc(Cl)cc3c2)c1 [Example 241, N-((6-amino-2,4-dimethylpyridin-3-yl)methyl)-2-((8-(aminomethyl)-3-chloroquinolin-6-yl)methyl)isonicotinamide] |
| < 100 | 100 to 1000 | O=C(NCc1ccc2[nH]cc(Cl)c2c1F)c1ccnc(Cc2ccc3ncc(C4CC4)cc3c2)c1 [Example 248, N-((3-chloro-4-fluoro-1H-indol-5-yl)methyl)-2-((3-cyclopropylquinolin-6-yl)methyl)isonicotinamide] |
| < 100 | 100 to 1000 | O=C(NCc1n[nH]c2ccc(Cl)cc12)c1ccnc(Cc2ccc3ncc(C4CC4)cc3c2)c1 [Example 249, N-((5-chloro-1H-indazol-3-yl)methyl)-2-((3-cyclopropylquinolin-6-yl)methyl)isonicotinamide] |
| < 100 | 100 to 1000 | Cc1cc(N)nc(C)c1CNC(=O)c1ccnc(C(O)c2ccc3ncc(Cl)cc3c2)c1 (stereo not drawn) [Example 275, N-((6-amino-2,4-dimethylpyridin-3-yl)methyl)-2-((3-chloroquinolin-6-yl)(hydroxy)methyl)isonicotinamide] |
| < 100 | 100 to 1000 | Cc1nc2ccc(Cc3cc(C(=O)NCc4ccc(N)nc4C)ccn3)cc2cc1Cl [Example 239, N-((6-amino-2-methylpyridin-3-yl)methyl)-2-((3-chloro-2-methylquinolin-6-yl)methyl)isonicotinamide] |
| < 100 | < 100 | CCCc1cnc2ccc(Cc3cc(C(=O)NCc4c(C)cc(N)nc4C)ccn3)cc2c1 [Example 255, N-((6-amino-2,4-dimethylpyridin-3-yl)methyl)-2-((3-propylquinolin-6-yl)methyl)isonicotinamide] |
| < 100 | < 100 | Cc1nc(N)ccc1CNC(=O)c1ccnc(Cc2cc(CN)c3ncc(Cl)cc3c2)c1 [Example 253, N-((6-amino-2-methylpyridin-3-yl)methyl)-2-((8-(aminomethyl)-3-chloroquinolin-6-yl)methyl)isonicotinamide] |

Further lines, the compound ahead of its results:

| Compound | IC50 (human plasma kallikrein) [nM] | EC50 [1] [nM] |
| --- | --- | --- |
| Cc1nc2c(c(C)c1CNC(=O)c1ccnc(Cc3ccc4ncc(C(F)(F)F)cc4c3)c1)CCN2 [Example 176, N-((4,6-dimethyl-2,3-dihydro-1H-pyrrolo[2,3-b]pyridin-5-yl)methyl)-2-((3-(trifluoromethyl)quinolin-6-yl)methyl)isonicotinamide] | < 100 | 100 to 1000 |
| Cc1cnc2c(S(N)(=O)=O)cc(Cc3cc(C(=O)NCc4ccc5c(N)nccc5c4)ccn3)cc2c1 [Example 289, N-((1-aminoisoquinolin-6-yl)methyl)-2-((3-methyl-8-sulfamoylquinolin-6-yl)methyl)isonicotinamide] | < 100 | < 100 |
| CC(C)(O)c1cc(Cc2cc(C(=O)NCc3cnc4[nH]cc(Cl)c4c3)ccn2)cc2cc(Cl)cnc12 [Example 223, N-((3-chloro-1H-pyrrolo[2,3-b]pyridin-5-yl)methyl)-2-((3-chloro-8-(2-hydroxypropan-2-yl)quinolin-6-yl)methyl)isonicotinamide] | < 100 | < 100 |
| CC(C)(O)c1cc(Cc2cc(C(=O)NCc3cc4c(Cl)c[nH]c4cc3F)ccn2)cc2cc(Cl)cnc12 [Example 221, N-((3-chloro-6-fluoro-1H-indol-5-yl)methyl)-2-((3-chloro-8-(2-hydroxypropan-2-yl)quinolin-6-yl)methyl)isonicotinamide] | < 100 | 100 to 1000 |
| Cc1cnc2c(S(N)(=O)=O)cc(Cc3cc(C(=O)NCc4cnc5[nH]cc(Cl)c5c4)ccn3)cc2c1 [Example 291, N-((3-chloro-1H-pyrrolo[2,3-b]pyridin-5-yl)methyl)-2-((3-methyl-8-sulfamoylquinolin-6-yl)methyl)isonicotinamide] | < 100 | < 100 |
